The conditions of series [1]: rats; cited from earlier work.
Series [2] addresses T1, cow milk-derived xanthine oxidase (XOD) (Bos taurus, UniProt P80457).
T1 construct: cow milk-derived xanthine oxidase (XOD) (10 mU/mL); from tissue; host or cells: cow milk
Briefly: Xanthine oxidase inhibition activity (inhibition of uric acid formation). It counts as biochemical. To be noted: for IC50: xanthine 100 μM, XOD 10 mU/mL, 50 mM phosphate buffer pH 7.4, room temperature 15 minutes, O.D. 292 nm; for xanthine oxidase inhibition activity compared with allopurinol: in words, versus allopurinol. The procedure: In a 50 mM phosphate buffer (pH 7.4), xanthine (100 μM), cow milk-derived xanthine oxidase (XOD) (10 mU/mL), and a test compound were mixed and the mixture was incubated at room temperature for 15 minutes.

The conditions of series [3]: patients administered allopurinol; cited from earlier work.

T1 sequence (P80457 whole entry): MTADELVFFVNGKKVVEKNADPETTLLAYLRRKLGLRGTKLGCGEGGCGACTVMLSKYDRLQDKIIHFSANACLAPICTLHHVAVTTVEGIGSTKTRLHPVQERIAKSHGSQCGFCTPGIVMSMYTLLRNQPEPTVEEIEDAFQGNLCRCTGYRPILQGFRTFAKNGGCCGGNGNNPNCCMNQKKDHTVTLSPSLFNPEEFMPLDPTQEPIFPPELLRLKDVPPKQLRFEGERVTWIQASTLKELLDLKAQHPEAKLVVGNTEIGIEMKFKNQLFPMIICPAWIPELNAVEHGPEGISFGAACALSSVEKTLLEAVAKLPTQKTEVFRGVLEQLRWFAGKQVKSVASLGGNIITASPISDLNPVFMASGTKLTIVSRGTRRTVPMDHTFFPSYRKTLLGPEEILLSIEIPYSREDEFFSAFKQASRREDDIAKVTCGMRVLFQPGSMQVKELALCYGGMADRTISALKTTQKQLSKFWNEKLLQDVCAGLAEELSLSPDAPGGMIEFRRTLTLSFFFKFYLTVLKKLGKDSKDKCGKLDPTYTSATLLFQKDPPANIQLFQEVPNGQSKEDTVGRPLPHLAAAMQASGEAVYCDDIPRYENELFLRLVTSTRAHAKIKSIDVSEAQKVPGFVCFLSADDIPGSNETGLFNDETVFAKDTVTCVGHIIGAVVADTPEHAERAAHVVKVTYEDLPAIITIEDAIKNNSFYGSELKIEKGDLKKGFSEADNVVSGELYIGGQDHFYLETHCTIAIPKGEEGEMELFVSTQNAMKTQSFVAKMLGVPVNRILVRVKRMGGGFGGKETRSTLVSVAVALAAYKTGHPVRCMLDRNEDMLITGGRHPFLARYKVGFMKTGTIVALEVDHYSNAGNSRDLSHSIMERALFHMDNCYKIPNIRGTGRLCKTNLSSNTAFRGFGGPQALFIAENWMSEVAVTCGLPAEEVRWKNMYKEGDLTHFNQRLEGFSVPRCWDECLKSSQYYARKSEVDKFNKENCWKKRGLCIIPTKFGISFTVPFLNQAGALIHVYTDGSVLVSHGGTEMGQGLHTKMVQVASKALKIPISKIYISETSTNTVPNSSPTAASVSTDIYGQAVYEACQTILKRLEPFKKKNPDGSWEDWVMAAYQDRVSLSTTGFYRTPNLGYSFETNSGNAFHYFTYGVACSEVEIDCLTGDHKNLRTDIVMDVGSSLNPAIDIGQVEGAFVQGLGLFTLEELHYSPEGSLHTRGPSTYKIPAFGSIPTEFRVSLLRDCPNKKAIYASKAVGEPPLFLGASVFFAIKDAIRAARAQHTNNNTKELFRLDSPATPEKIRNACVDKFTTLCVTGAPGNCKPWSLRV

`Cc1nc(-c2ccc(OCC(C)C)c(C#N)c2)sc1C(=O)O` [Febuxostat]: the “excreted through non-renal excretion pathways” value in series [1] was “about 50%”.

As usually defined, the IC50 is the midpoint of a concentration-inhibition curve. Lower therefore signals greater potency. In the case of `O=c1nc(NN=Cc2ccc(F)cc2)c2[nH]cnc2[nH]1` [I-1], inhibition in series [2] was half-maximal at 38 nM (IC50).

Molecule `O=c1nc(NN=Cc2ccc(Cl)cc2)c2[nH]cnc2[nH]1` [I-2] showed an IC50 in series [2] of 25 nM.

`CN(C)c1ccc(C=NNc2nc(=O)[nH]c3nc[nH]c23)cc1` [I-3]: the IC50 in series [2] turned out to be 75 nM.

Turning to `O=c1nc(NN=Cc2ccc([N+](=O)[O-])cc2)c2[nH]cnc2[nH]1` [I-4], inhibition in series [2] was half-maximal at 45 nM (IC50).

For the molecule `COc1ccc(C=NNc2nc(=O)[nH]c3nc[nH]c23)cc1` [I-5], in series [2], it took 57 nM to reach half-maximal inhibition (IC50).

`O=c1nc(NN=Cc2ccc3c(c2)OCO3)c2[nH]cnc2[nH]1` [I-6] came in with an IC50 in series [2] of 63 nM.

Turning to `O=c1nc(NN=Cc2ccc(O)cc2)c2[nH]cnc2[nH]1` [I-7], the half-maximal inhibitory concentration (IC50) in series [2] amounted to 45 nM.

As a reminder, the melting point is the temperature of the solid-liquid transition. `CCCCCCCC=NNc1nc(=O)[nH]c2nc[nH]c12` [I-8, 6-n-octylidenehydrazino-7H-purin-2(3H)-one] showed a melting point of 190 °C. This molecule returned an IC50 in series [2] of 2020 nM.

`O=c1nc(NN=Cc2ccccc2)c2[nH]cnc2[nH]1` [I-9] gave a melting point of 300 °C. This molecule gave an IC50 in series [2] of 50 nM.

Turning to `Cc1ccc(C=NNc2nc(=O)[nH]c3nc[nH]c23)cc1` [I-10], the melting point was > 300 °C. Also, the IC50 in series [2] worked out at 20 nM.

Regarding `COc1cc(C=NNc2nc(=O)[nH]c3nc[nH]c23)cc(OC)c1OC` [I-11], the half-inhibitory concentration (IC50) in series [2] turned out to be 208 nM.

For `O=c1nc(NN=Cc2ccc(O)c(O)c2)c2[nH]cnc2[nH]1` [I-12], the melting point is > 300 °C. Further, the half-inhibitory concentration (IC50) in series [2] came out at 349 nM.

For the molecule `O=c1nc(NN=Cc2ccc(O)c(O)c2O)c2[nH]cnc2[nH]1` [I-13], the melting point was > 300 °C. Further, in series [2], it took 1480 nM to reach half-maximal inhibition (IC50).

For the molecule `COc1ccccc1C=NN(C)c1nc(=O)[nH]c2nc[nH]c12` [I-14], the IC50 in series [2] is 79 nM.

The molecule `COc1cccc(C=NN(C)c2nc(=O)[nH]c3nc[nH]c23)c1` [I-15] had an IC50 in series [2] of 100 nM.

The molecule `COc1ccc(C=NN(C)c2nc(=O)[nH]c3nc[nH]c23)cc1` [I-16] registered an IC50 in series [2] of 76 nM.

In the case of `CN(N=Cc1ccc(F)cc1)c1nc(=O)[nH]c2nc[nH]c12` [I-17], the half-inhibitory concentration (IC50) in series [2] turned out to be 116 nM.

For `CN(N=Cc1ccc(O)cc1)c1nc(=O)[nH]c2nc[nH]c12` [I-18], it took 93 nM to reach half-maximal inhibition in series [2] (IC50).

Turning to `CCCCCCCC=NN(C)c1nc(=O)[nH]c2nc[nH]c12` [I-19, 6-(1-methyl-2-n-octylidenehydrazino)-7H-purin-2(3H)-one], the melting point was 248 °C. Besides, the half-maximal inhibitory concentration (IC50) in series [2] was > 10000 nM.

Turning to `COc1cc(C=NN(C)c2nc(=O)[nH]c3nc[nH]c23)cc(OC)c1OC` [I-20], the melting point is > 300 °C. Also, the IC50 in series [2] was > 10000 nM.

Consider `CN(N=Cc1ccc(O)c(O)c1)c1nc(=O)[nH]c2nc[nH]c12` [I-21], for which the melting point was > 300 °C. For the same molecule, the IC50 in series [2] was > 10000 nM.

Consider `CN(N=Cc1ccc(O)c(O)c1O)c1nc(=O)[nH]c2nc[nH]c12` [I-22], for which the melting point is > 300 °C. Also, the concentration for half-maximal inhibition (IC50) in series [2] is > 10000 nM.

Take `Cc1nc2[nH]c(=O)nc(NN=Cc3ccc([N+](=O)[O-])cc3)c2[nH]1` [I-33, 8-methyl-6-(4-nitrobenzylidenehydrazino)-7H-purin-2(3H)-one]: the melting point was > 330 °C.

For the molecule `O=c1nc(NN=Cc2ccccc2)c2[nH]c(-c3ccccc3)nc2[nH]1` [I-34], the melting point came out at 318 °C. In addition, the half-inhibitory concentration (IC50) in series [2] was > 10000 nM.

In the case of `O=c1nc(NN=Cc2ccc(Cl)cc2)c2[nH]c(-c3ccccc3)nc2[nH]1` [I-35], the melting point is > 330 °C. For the same molecule, in series [2], the IC50 was > 10000 nM.

In turn, `Cc1ccc(C=NNc2nc(=O)[nH]c3nc(-c4ccccc4)[nH]c23)cc1` [I-36] had a melting point of 321 °C. Besides, the IC50 in series [2] is > 10000 nM.

`COc1ccc(C=NNc2nc(=O)[nH]c3nc(-c4ccccc4)[nH]c23)cc1` [I-37] showed a melting point of 314 °C. For the same molecule, in series [2], the “xanthine oxidase inhibition activity compared with allopurinol” value is on record as “higher xanthine oxidase inhibition activity than allopurinol” and the concentration for half-maximal inhibition (IC50) stood at 9210 nM.

`O=c1nc(NN=Cc2ccc([N+](=O)[O-])cc2)c2[nH]c(-c3ccccc3)nc2[nH]1` [I-38, 6-(4-nitrobenzylidenehydrazino)-8-phenyl-7H-purin-2(3H)-one]: the melting point was > 330 °C. Besides, in series [2], the “xanthine oxidase inhibition activity compared with allopurinol” value is recorded as “higher xanthine oxidase inhibition activity than allopurinol” and half-maximal inhibition (IC50) was put at 4480 nM.

In turn, `O=c1nc(NN=Cc2ccc([N+](=O)[O-])cc2)c2[nH]c(-c3ccc(Cl)cc3)nc2[nH]1` [I-43, 8-(4-chlorophenyl)-6-(4-nitrobenzylidenehydrazino)-7H-purin-2(3H)-one] displayed a melting point of 229 °C.

Molecule `O=c1[nH]c2nc[nH]c2c2ncnn12` [II-1] gave a melting point of 262 °C. For the same molecule, the IC50 in series [2] is > 10000 nM.

For the molecule `Cc1nc2c3[nH]cnc3[nH]c(=O)n2n1` [II-2], the melting point is 277 °C. In series [2], the IC50 is > 10000 nM.

In the case of `O=c1[nH]c2nc[nH]c2c2nc(-c3ccccc3)nn12` [II-3], the melting point is > 300 °C. This molecule also came in with a half-inhibitory concentration (IC50) in series [2] of 2570 nM.

For the molecule `O=c1[nH]c2nc[nH]c2c2nc(-c3ccc(Cl)cc3)nn12` [II-4], the melting point amounted to 285 °C. The molecule also registered an IC50 in series [2] of 66 nM.

Take `COc1ccc(-c2nc3c4[nH]cnc4[nH]c(=O)n3n2)cc1` [II-5]: the melting point is 288 °C. Moreover, half-maximal inhibition in series [2] (IC50) was put at 130 nM.

As to `CCCCCCCc1nc2c3[nH]cnc3[nH]c(=O)n2n1` [II-6], the melting point was > 270 °C. The same molecule gave an IC50 in series [2] of 9200 nM.

As for `Cc1ccc(-c2nc3c4[nH]cnc4[nH]c(=O)n3n2)cc1` [II-7], the melting point is > 300 °C. Further, the IC50 in series [2] was 2400 nM.

For the molecule `O=c1[nH]c2nc[nH]c2c2nc(-c3ccc([N+](=O)[O-])cc3)nn12` [II-8], the melting point was > 300 °C. Besides, inhibition in series [2] was half-maximal at 4270 nM (IC50).

On to `COc1cc(-c2nc3c4[nH]cnc4[nH]c(=O)n3n2)cc(OC)c1OC` [II-9], for which the melting point is > 283 °C. Moreover, half-maximal inhibition in series [2] (IC50) was put at 2010 nM.

Consider `O=c1[nH]c2nc[nH]c2c2nc(-c3ccc(O)c(O)c3)nn12` [II-10], for which the melting point was > 285 °C. In series [2], this molecule registered a 50% inhibitory concentration (IC50) of 1480 nM.

Take `Cn1cnc2c1c1nc(-c3ccc(Cl)cc3)nn1c(=O)n2C` [II-14]: the melting point is > 330 °C. The IC50 in series [2] was > 10000 nM.

For `Cn1cnc2c1c1nc(-c3ccc([N+](=O)[O-])cc3)nn1c(=O)n2C` [II-17], the melting point was > 330 °C. For the same molecule, in series [2], the IC50 is > 10000 nM.

Take `Cc1nc2[nH]c(=O)n3nc(-c4ccc([N+](=O)[O-])cc4)nc3c2[nH]1` [II-24]: the melting point was > 330 °C. Also, in series [2], the 50% inhibitory concentration (IC50) was > 10000 nM.

As to `O=c1[nH]c2nc(-c3ccccc3)[nH]c2c2ncnn12` [II-25], the melting point was > 330 °C. In series [2], the “xanthine oxidase inhibition activity compared with allopurinol” value is given as “higher xanthine oxidase inhibition activity than allopurinol” and half-maximal inhibition (IC50) was put at 9910 nM.

Take `O=c1[nH]c2nc(-c3ccccc3)[nH]c2c2nc(-c3ccc([N+](=O)[O-])cc3)nn12` [II-31]: the melting point is > 330 °C. Moreover, the half-inhibitory concentration (IC50) in series [2] is > 10000 nM.

For `O=c1[nH]c2nc(-c3ccc(Cl)cc3)[nH]c2c2ncnn12` [II-32], the melting point is > 330 °C. Besides, in series [2], the “xanthine oxidase inhibition activity compared with allopurinol” value is recorded as “higher xanthine oxidase inhibition activity than allopurinol” and the concentration for half-maximal inhibition (IC50) amounted to 1090 nM.

The molecule `Cn1cnc2c1c1nncn1c(=O)n2C` [III-1, 6,9-dimethyl-9H-1,2,4-triazolo[3,4-i]purin-5(6H)-one] registered a melting point of 264 °C.

`Cc1nnc2c3c(ncn3C)n(C)c(=O)n12` [III-2, 3,6,9-trimethyl-9H-1,2,4-triazolo[3,4-i]purin-5(6H)-one]: the melting point stood at 270 °C.

For the molecule `Oc1ncnc2[nH]ncc12` [allopurinol], the “patients suffering from side effects (severe skin disorders, hypersensitivity vasculitis)” value in series [3] was “three to five”.
